Measured values as given in patent publication US7351531B2, “Molecules capable of binding to telomere and the like and method with the use of the same” (Japan Science and Technology Corporation, priority 2001, dated 2008).

How the values were obtained:
[1] = tested on: single-stranded human telomere sequence DNA (22-mer 5'-AGGGTTAGGGTTAGGGTTAGGG3'); experiment: Binding titration with single-stranded human telomere sequence DNA (22-mer, FIG. 4)
Method: Samples of single-stranded human telomere sequence DNA were tested for the inhibition of DNA cleavage by DNase I (DNA hydrolase) through footprinting titration in the presence of a varying concentration of the compound of formula (III) (this is hereinafter referred to as naphthyridine dimer or simply as ND).
The test result in FIG. 4 is similar to that in FIG. 2. The vertical axis of FIG. 4 indicates the cleavage inhibition ratio derived from the cleavage band intensity. […] The horizontal axis of FIG. 4 indicates the ratio of the G-G mismatch concentration to the concentration (M) of the compound of formula (III) added to the test system, [GG]/[ND] in which ND means the compound of formula (III).
A solution of a 22-mer oligonucleotide having the following base sequence: • 5′-[…]3′ (SEQ ID NO: 9) in a sodium cacodylate buffer (10 mM, pH 7.0, NaCl 100mM) was heated at 70° C. for 5 minutes, and then gradually cooled so that the oligomer could form a quadraplex structure (see Structure, 263, 1 (1993)). A varying concentration of a naphthyridine dimer was dropwise added to the resulting solution, and the naphthyridine dimer-binding amount was obtained through 360 nm absorptiometry.

[2] = tested on: normal G-C base pair in 52-mer duplex DNA; experiment: DNase I footprinting titration of 52-mer duplex DNA, normal G-C site; type: binding; settings: concentration 0 to 500 μM, FIG. 1
Method: (§1) A 5′-^32P-labeled 52-mer duplex DNA having a GC base pair, GA mismatch base pair and a GG mismatch base pair in the duplex DNA was prepared. The partial listing of the corresponding moieties is shown below.
(§2) The inventors have analyzed the duplex DNA through DNase I (DNA hydrolase) footprinting titration for the sites where the DNA cleavage by DNase I was inhibited in the presence of a varying concentration of the compound of formula (III).
In FIG. 1, the concentration of the compound of formula (III) varies from 0 to 500 μM from the left to the right. The sites cleaved with the DNase I (DNA hydrolase) are seen black, while those protected from cleavage with the DNase I are seen white.
(§3) ^32P-5′-end-labeled 52-mer DNA was hybridized into a duplex DNA with G-G and G-A mismatches (see the right side of FIG. 1).
(§4) A varying concentration of the compound obtained in Example 1 was added to the duplex DNA, and the DNA was analyzed through DNase I footprinting titration.
Concretely, the duplex DNA (<4 nM strand concentration) was incubated at 4° C. for 12 hours along with a varying concentration of the compound obtained in Example 1, in a tris-HCl buffer (10 mM, pH 7.6) that contains NaCl (100 mM) and MgCl2(5 mM). To this was added 0.2 U DNaseI (DNA hydrolase), and this was further incubated at 25° C. for 8 minutes. […]

[3] = tested on: G-A mismatch base pair in 52-mer duplex DNA; experiment: DNase I footprinting titration of 52-mer duplex DNA, G-A mismatch site; type: binding; design: effect of inhibiting G-A mismatch site cleavage: dose or concentration left out as unconfirmed
Method: as §1, §2
(§5) The relationship between the cleavage band intensity and the naphthyridine concentration in FIG. 1 is plotted to give a graph as in FIG. 2. The vertical axis of FIG. 2 indicates the cleavage inhibition ratio derived from the cleavage band intensity. […] The horizontal axis of FIG. 2 indicates the concentration (M) of the compound of formula (III) added to the test system. In FIG. 2, the closed circles (●) indicate the G-G mismatch site, and the closed triangles (▴) indicate the G-A mismatch site.
as §3, §4
(§6) Concretely, the duplex DNA (<4 nM strand concentration) was incubated at 4° C. for 12 hours along with a varying concentration of the compound obtained in Example 1, in a tris-HCl buffer (10 mM, pH 7.6) that contains NaCl (100 mM) and MgCl2(5 mM). To this was added 0.2 U DNaseI (DNA hydrolase), and this was further incubated at 25° C. for 8 minutes. Next, this was precipitated in ethanol to recover the DNA, which was then subjected to electrophoresis with a gel that contains 12% polyacrylamide and 7 M urea.

[4] = tested on: G-G mismatch base pair in 52-mer duplex DNA; experiment: DNase I footprinting titration of 52-mer duplex DNA, G-G mismatch site; type: binding
Method: as §1, §2, §5, §3, §4, §6

[5] = 52-mer duplex DNA, DNase I footprinting titration

## Cc1ccc2ccc(NC(=O)CCNCCC(=O)Nc3ccc4ccc(C)nc4n3)nc2n1 [compound of formula (III), dinaphthyridinamide]
[1]; 22-mer, sodium cacodylate buffer pH 7.0, NaCl 100 mM, Scatchard plot
  association constant to the G-G mismatch (Ka(GGmis)) in human telomere sequence: 420000 M⁻¹
[1]; FIG. 4
  concentration ratio [GG]/[ND] at which G-G mismatch site cleavage is almost completely inhibited: about 3
[1]; FIG. 4, relatively low concentration
  concentration ratio [GG]/[ND] at which compound is already effective for inhibiting cleavage of the G-G mismatch site: 0.5
[2]
  protection of normal G-C base pair from DNase I cleavage: cleaved by DNase I
[3]
  effect of inhibiting G-A mismatch site cleavage: about 90%
[3]; [5]
  association constant to the G-A mismatch (Ka(GAmis)): 16300 M⁻¹
[3]; FIG. 2
  concentration at which compound becomes effective for inhibiting cleavage of the G-A mismatch site: about 10^−6 M
[4]; [5]
  association constant to the G-G mismatch (Ka(GGmis)): 1.13e+07 M⁻¹
[4]; FIG. 2
  concentration at which G-G mismatch site cleavage by DNase I is almost completely inhibited: about 10^−5 M
[4]; G-G versus G-A mismatch, 52-mer duplex DNA
  ratio of the association constants (Ka(GGmis))/(Ka(GAmis)): 696
